The values below come from US10173981B2, “Picolinamides as fungicides” (DOW AGROSCIENCES LLC, priority 2014, dated 2019).

Type in all cases: in vivo
Assay [1] concerns Zymoseptoria tritici. The assay is described as follows: Fungicidal activity: leaf blotch of wheat (SEPTTR), wheat seedlings. The note with it: for pest or weed control at 100 ppm: High volume, wheat; for pest or weed control at 121.5 g/ha: Low Volume Cereal Activity at 121.5 g/Ha. On the procedure: (§1) All fungicides were evaluated using the aforementioned method for their activity vs. all target diseases, unless stated otherwise. Wheat leaf blotch and brown rust activity were also evaluated using track spray applications, in which case the fungicides were formulated as EC formulations, containing 0.1% Trycol 5941 in the spray solutions. Wheat plants (variety Yuma) were grown from seed in a greenhouse in 50% mineral soil/50% soil-less Metro mix until the first leaf was fully emerged, with 7-10 seedlings per pot. These plants were inoculated with an aqueous spore suspension of Zymoseptoria tritici either prior to or after fungicide treatments. After inoculation the plants were kept in 100% relative humidity (one day in a dark dew chamber followed by two to three days in a lighted dew chamber at 20° C.) to permit spores to germinate and infect the leaf. The plants were then transferred to a greenhouse set at 20° C. for disease to develop. When disease symptoms were fully expressed on the 1st leaves of untreated plants, infection levels were assessed on a scale of 0 to 100 percent disease severity. Percent disease control was calculated using the ratio of disease severity on treated plants relative to untreated plants.

The subject of assay [2] is Puccinia triticina. The assay is described as follows: Fungicidal activity: wheat brown rust (PUCCRT), wheat seedlings. To be noted: for pest or weed control at 100 ppm: High volume, wheat; for pest or weed control at 121.5 g/ha: Low Volume Cereal Activity at 121.5 g/Ha. On the procedure: as §1, with “plants. Example B: Evaluation of Fungicidal Activity: Wheat Brown Rust (Puccinia triticina; Synonym: Puccinia recondita f. sp. tritici; Bayer code PUCCRT) Wheat plants (variety Yuma) were grown from seed in a greenhouse in 50% mineral soil/50% soil-less Metro mix until the first leaf was fully emerged, with 7-10 seedlings per pot. These plants were inoculated with an aqueous spore suspension of Puccinia triticina either prior to or after fungicide treatments. […] The plants were then transferred to a greenhouse set at 24° C. for disease to develop. Fungicide formulation, application and disease assessment followed the procedures as described in the Example A.” for “plants.”

Assay [3] has as its system Alternaria solani. The assay is described as follows: Fungicidal activity: tomato early blight (ALTESO), tomato plants. The note with it: 1DP, high volume, read-out: ALTESO (% control rating).
Assay [4] concerns Cercospora beticola. The assay is described as follows: Fungicidal activity: leaf spot of sugar beets (CERCBE). The note with it: 1DP, high volume, sugar beet, read-out: CERCBE (% control rating).
Assay [5] has as its system Phakopsora pachyrhizi. The assay is described as follows: Fungicidal activity: Asian soybean rust (PHAKPA), soybean seedlings. To be noted: High volume; for pest or weed control at 25 ppm: Phakopsora pachyrhizi.
Assay [6] relates to Pyricularia oryzae. The assay is described as follows: whole plant or invertebrate. The note with it: read-out: PYRIOR (% control rating).
The subject of assay [7] is Colletotrichum lagenarium. The assay is described as follows: Fungicidal activity: cucumber anthracnose (COLLLA), cucumber seedlings. To be noted: Colletotrichum orbiculare, 1DP, high volume, read-out: COLLLA (% control rating).
Assay [8] relates to Rhyncosporium secalis. The assay is described as follows: Fungicidal activity: barley scald (RHYNSE), barley seedlings. To be noted: Hordeum vulgare, 1DP, high volume, read-out: RHYNSE (% control rating).
Assay [9] has as its system Venturia inaequalis. Nature of the assay: Fungicidal activity: apple scab (VENTIN), apple seedlings. To be noted: 1DP, high volume, read-out: VENTIN (% control rating).
Assay [10] concerns Leptosphaeria nodorum. The assay is described as follows: Fungicidal activity: wheat glume blotch (LEPTNO), wheat seedlings. The note with it: Parastagonospora nodorum, 1DP, high volume, read-out: LEPTNO (% control rating).
The mark [11] stands for this setting: 24 h, 1 day protectant, read-out: PHAKPA 1 DP (% control rating).
Setting [12] is: 72 h, 3 day curative, read-out: PHAKPA 3 DC (% control rating).
[13] abbreviates: 24 h, 1 Day Protectant, read-out: SEPTTR 1 DP (Wheat Leaf Blotch, 1 Day Protectant).
Where [14] appears, read: 72 h, 3 Day Curative, read-out: SEPTTR 3 DC (Wheat Leaf Blotch, 3 Day Curative).
Setting [15] is: 24 h, 1 Day Protectant, read-out: PUCCRT 1 DP (Wheat Brown Rust, 1 Day Protectant).
[16] abbreviates: 72 h, 3 Day Curative, read-out: PUCCRT 3 DC (Wheat Brown Rust, 3 Day Curative).

Like-named read-outs stand apart in the source and are kept apart here. Where only a bound is given, the exact number is not on record here.

Consider `COc1cc(F)ccc1[C@@H](Oc1ccccc1)[C@H](C)OC(=O)[C@H](C)NC(=O)c1nccc(OC)c1O` [Example 178], for which the pest or weed control at 100 ppm in [1] (24 h, 1 day protectant, read-out: SEPTTR 1 DP (% control rating)) is > 80%; in assay [1] (72 h, 3 day curative, read-out: SEPTTR 3 DC (% control rating)) it was > 80%; in [2] (24 h, 1 day protectant, read-out: PUCCRT 1 DP (% control rating)), > 80%; in assay [2] (72 h, 3 day curative, read-out: PUCCRT 3 DC (% control rating)), < 80%.

Take `COc1ccnc(C(=O)N[C@@H](C)C(=O)O[C@@H](C)C(Oc2ccc(F)cc2)c2ccc(F)cc2)c1OC(C)=O` (stereo partly shown) [Example 236]: the pest or weed control at 100 ppm in assay [3] was < 80%; in assay [4], > 80%; in assay [6] it was > 80%; in [7], < 80%; in assay [8], > 80%; in [9], > 80%. For the same compound, the pest or weed control at 100 ppm in assay [10] was > 80%. Further, the pest or weed control at 25 ppm in assay [5] (setting [11]) was > 80%; in assay [5] (setting [12]), < 0%. The pest or weed control at 121.5 g/ha in [1] (setting [13]), in assay [1] (setting [14]), in [2] (setting [15]) and in assay [2] (setting [16]) was > 80% throughout.

`COc1cc(C)ccc1[C@@H](Oc1ccccc1)[C@H](C)OC(=O)[C@H](C)NC(=O)c1nccc(OC)c1OC(C)=O` [Example 269]: the pest or weed control at 25 ppm in assay [5] (setting [11]) was > 80%; in assay [5] (setting [12]) it was < 80%. The pest or weed control at 121.5 g/ha in assay [1] (setting [13]), in [1] (setting [14]), in assay [2] (setting [15]) and in assay [2] (setting [16]) was > 80% in each case.

For the compound `COc1cc(F)ccc1[C@@H](Oc1ccccc1)[C@H](C)OC(=O)[C@H](C)NC(=O)c1nccc(OC)c1OC(C)=O` [Example 270], in assay [5] (25 ppm, 1 day protectant), the “PHAKPA 1 DP (% control rating)” value was “B (≤80)”. The “PHAKPA 3 DC (% control rating)” value in assay [5] (25 ppm, 3 day curative) is “D (≤0)”.
